Here are results for 1 molecule from patent US20190000868A1, “COMPOSITIONS COMPRISING 4'-O-GLUCURONIDE EPICATECHIN AND METHODS OF MAKING AND USING SUCH COMPOSITIONS” (NESTEC S.A., priority 2015, published 2019).

The test concerns endothelial nitric oxide synthase. The test is described as follows: eNOS phosphorylation (western blot) in isolated aortic rat rings. It counts as cell-based. Further details: dose or concentration left out as unconfirmed. The note with it: isolated thoracic aortic rings of male Wistar rats, incubated 1 h, FIG. 4. The protocol:
Comparative experiments were conducted on the expression of endothelial nitric oxide synthase in isolated aortic rat rings.
Thoracic aortas were obtained from male adults Wistar rats after euthanasia. Each aorta was carefully dissected and harvested cleaned of excess tissue and cut into three equal segments, approximately 7 mm long. All aortic rings were pre-incubated for 30 min in Krebs solution (20 mM Hepes buffer, pH 7.4, containing 119 mM NaCl, 4.7 mM KCl, 1 mM MgSO4, 0.4 mM NaH2PO4, 0.15 mM Na2HPO4, 5 mM NaHCO3, 1.25 mM CaCl2, 5.5 mM glucose) aerated with 95% O2 and 5% CO2 at 37° C. and then incubated with vehicle (DMSO 1%) or the different metabolites for 1 h. Metabolites were first dissolved in DMSO 1% and tested in a final concentration […]. At the end of the incubation period aortic rings were frozen at −70° C. until the homogenate preparation. Homogenates for western blot and western blot determinations were carried out by the regular procedures and phosphorylation level of endothelial nitric oxide synthase was evaluated.
In general terms: Immunoblotting shows a protein as a band on a membrane.

SMILES strings stand for the structures.

On to `O=C(O)[C@H]1O[C@@H](Oc2ccc([C@H]3Oc4cc(O)cc(O)c4C[C@H]3O)cc2O)[C@H](O)[C@@H](O)[C@@H]1O` [4′-O-glucuronide epicatechins, 4′-O-glucuronide epicatechin], for which the “phosphorylation level of endothelial nitric oxide synthase (p-eNOS vs eNOS total)” value was “increased eNOS phosphorylation relative to control and chemically similar epicatechins”.
